Structures are written as SMILES. pEC50: −log10 of the molar value.

The target of the experiment is T1, Ceramide glucosyltransferase (Homo sapiens, UniProt Q16739).
T1 sequence (Q16739 whole entry): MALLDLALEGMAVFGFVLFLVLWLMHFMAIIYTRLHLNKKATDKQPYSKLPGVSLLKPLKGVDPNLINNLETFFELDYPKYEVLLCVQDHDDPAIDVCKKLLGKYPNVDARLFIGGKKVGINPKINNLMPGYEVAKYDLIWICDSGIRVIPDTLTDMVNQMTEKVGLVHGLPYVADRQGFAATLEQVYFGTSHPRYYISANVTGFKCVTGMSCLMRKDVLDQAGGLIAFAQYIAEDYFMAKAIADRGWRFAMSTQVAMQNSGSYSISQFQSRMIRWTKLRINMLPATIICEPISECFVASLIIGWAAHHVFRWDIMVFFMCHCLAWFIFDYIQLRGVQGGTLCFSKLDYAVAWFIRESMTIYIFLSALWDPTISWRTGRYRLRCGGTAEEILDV
In words: UDP-Glo Glucosylceramide Synthase Biochemical Assay. The procedure:
Using Promega s UDP-Glo Glycosyltransferase assay kit (Promega Corporation, Madison, WI, USA (Promega)), GCS activity was indirectly measured by detecting the amount of UDP produced. An aliquot of GCS enzyme (1.5 µg crude golgi preparation, total protein) and titrated test compound were aliquoted to each well and incubated for 30 minutes at room temperature. […] An equivalent volume of substrate mixture was then added to each well. Following a 20 h incubation at room temperature to allow for GCS turnover of substrate, an equal volume of UDP detection reagent (Promega) was added to each well and incubated for an additional 75 minutes at room temperature to simultaneously convert the accumulated UDP product into ATP and generate light in a luciferase reaction. The generated light was detected using a luminometer. […] luminescence values (RLUs) were normalized to mean min and max effects, as determined on each plate. […] See Levenberg, K., A Method for the Solution of Certain Problems in Least Squares , Quart. Appl.
As for `CC(C)(O)[C@@H](C1CC1)N1Cc2cccc(-c3cccc(OCC(F)(F)F)c3)c2C1=O` [WO2022115301, Example 14], the pEC50 (in general, the EC50 on a negative log10 scale, so that one unit is a factor of ten) is 7.32.

The molecule `CC(C)(O)[C@@H](C1CC1)N1Cc2cccc(-c3ccc(-c4nnco4)cc3)c2C1=O` [WO2022115301, Example 5] had a pEC50 of 7.28. Consider `Cc1nnc(-c2ccc(-c3cccc4c3C(=O)N([C@H](C3CC3)C(C)(C)O)C4)cc2F)o1` [WO2022115301, Example 9], for which the negative logarithm of the EC50 (pEC50) was 7.62.

The molecule `COc1cc(Cl)cc(-c2cccc3c2C(=O)N([C@H](C2CC2)C(C)(C)O)C3)c1` [WO2022115301, Example 10] showed a pEC50 of 8.55. The same measure for `Cn1c(=O)n(C)c2cc(-c3cccc4c3C(=O)N([C@H](C3CC3)C(C)(C)O)C4)ccc21` [WO2022115301, Example 6]: 8.35; for `Cc1n[nH]c2cc(F)c(-c3cccc4c3C(=O)N([C@H](C3CC3)C(C)(C)O)C4)cc12` [WO2022115301, Example 11]: 8.31. Next, `Cn1ncc2cc(-c3cccc4c3C(=O)N([C@H](C3CC3)C(C)(C)O)C4)ccc21` [WO2022115301, Example 12]: 7.89. In the case of `CN1Cc2cc(-c3cc(F)cc4c3C(=O)N([C@H](C3CC3)C(C)(C)O)C4)ccc2C1=O` [WO2022115301, Example 25], the negative-log EC50 (pEC50) was 8.04. The same measure for `CC(C)(O)[C@@H](C1CC1)N1Cc2cccc(-c3ccccc3OCC(F)(F)F)c2C1=O` [WO2022115301, Example 7]: 8.44; for `COc1cc(C#N)cc(-c2cccc3c2C(=O)N([C@H](C2CC2)C(C)(C)O)C3)c1` [WO2022115301, Example 8]: 8.12; for `CC(C)(O)[C@@H](C1CC1)N1Cc2cccc(-c3cccc4c3OC(F)(F)O4)c2C1=O` [WO2022115301, Example 16]: 7.41. `CC(C)(O)[C@@H](C1CC1)N1Cc2cccc(-c3ccc(-n4nccn4)cc3)c2C1=O` [WO2022115301, Example 17]: the pEC50 is 6.24.

Consider `Cn1cc(-c2ccc(-c3cccc4c3C(=O)N([C@H](C3CC3)C(C)(C)O)C4)cc2)cn1` [WO2022115301, Example 15], for which the pEC50 was 8.19.

`Cn1cc(-c2ccc(-c3cc(F)cc4c3C(=O)N([C@H](C3CC3)C(C)(C)O)C4)cc2)cn1` [WO2022115301, Example 24] showed a pEC50 of 9.03.
